From paper PMC4447944 (The Journal of Biological Chemistry, 2015)

Experiments:
[1] = target: T1, hRET (Homo sapiens, UniProt P07949); assay: KINOMEscan; assay type: binding
T1 construct: purchased DiscoverX (KINOMEscan platform)

[2] = target: T2, hCAMKK2 (Homo sapiens, UniProt Q96RR4); assay: KINOMEscan; assay type: binding
T2 construct: purchased DiscoverX

[3] = target: T3, hRSK1(Kin.Dom.2-C-term) (Homo sapiens, UniProt Q15418); assay: KINOMEscan; assay type: binding
T3 construct: hRSK1(Kin.Dom.2-C-term); purchased DiscoverX (KINOMEscan platform)
T3 sequence (Q15418 418-675 limits assumed): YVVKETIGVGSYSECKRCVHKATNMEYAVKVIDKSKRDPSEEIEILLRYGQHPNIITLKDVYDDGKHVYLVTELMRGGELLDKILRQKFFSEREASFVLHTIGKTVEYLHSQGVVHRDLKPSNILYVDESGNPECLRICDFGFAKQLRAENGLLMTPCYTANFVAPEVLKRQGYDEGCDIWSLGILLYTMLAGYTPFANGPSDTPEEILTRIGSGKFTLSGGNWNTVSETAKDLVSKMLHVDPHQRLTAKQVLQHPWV

[4] = target: T4, hTAOK3 (Homo sapiens, UniProt Q9H2K8); assay: KINOMEscan; assay type: binding
T4 construct: purchased DiscoverX

[5] = target: T5, hMKK7 (Homo sapiens, UniProt O14733); assay: KINOMEscan; assay type: binding
T5 construct: purchased DiscoverX
T5 sequence (O14733 whole entry): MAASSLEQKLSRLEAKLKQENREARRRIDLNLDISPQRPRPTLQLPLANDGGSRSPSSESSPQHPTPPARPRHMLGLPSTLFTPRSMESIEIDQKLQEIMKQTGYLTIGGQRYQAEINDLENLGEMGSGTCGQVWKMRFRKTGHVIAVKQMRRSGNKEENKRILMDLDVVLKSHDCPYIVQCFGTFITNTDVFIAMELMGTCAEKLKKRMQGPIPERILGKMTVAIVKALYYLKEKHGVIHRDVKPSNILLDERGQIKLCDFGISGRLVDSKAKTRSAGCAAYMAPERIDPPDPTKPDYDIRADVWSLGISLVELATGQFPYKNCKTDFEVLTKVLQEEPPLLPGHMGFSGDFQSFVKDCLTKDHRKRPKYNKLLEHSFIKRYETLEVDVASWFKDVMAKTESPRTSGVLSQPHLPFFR

[6] = target: T6, hDRAK1 (Homo sapiens, UniProt Q9UEE5); assay: KINOMEscan; assay type: binding
T6 construct: purchased DiscoverX

[7] = target: T7, hD1 (Homo sapiens, UniProt P21728); assay: cAMP Agonist (Eurofins-CEREP); conditions: @ 10 μM
T7 sequence (P21728 whole entry): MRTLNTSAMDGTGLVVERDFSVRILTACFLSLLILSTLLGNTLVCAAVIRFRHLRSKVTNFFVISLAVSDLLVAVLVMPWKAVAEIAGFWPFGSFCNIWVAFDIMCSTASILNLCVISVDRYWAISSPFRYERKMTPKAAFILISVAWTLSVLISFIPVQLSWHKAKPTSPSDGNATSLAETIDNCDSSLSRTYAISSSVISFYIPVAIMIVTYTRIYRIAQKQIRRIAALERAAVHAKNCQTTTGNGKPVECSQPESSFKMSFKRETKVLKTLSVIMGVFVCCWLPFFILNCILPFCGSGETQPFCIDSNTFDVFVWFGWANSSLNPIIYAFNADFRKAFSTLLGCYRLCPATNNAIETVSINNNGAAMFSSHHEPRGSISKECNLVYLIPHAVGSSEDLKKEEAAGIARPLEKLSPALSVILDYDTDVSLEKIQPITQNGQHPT

[8] = target: T8, hIKK-alpha (Homo sapiens, UniProt O15111); assay: KINOMEscan; assay type: binding
T8 construct: purchased DiscoverX (KINOMEscan panel)

[9] = target: hOPRm1 (Homo sapiens, UniProt P35372); assay: cAMP Potentiation (Eurofins-CEREP); conditions: @ 1 μM
Chain of hOPRm1 (P35372 whole entry): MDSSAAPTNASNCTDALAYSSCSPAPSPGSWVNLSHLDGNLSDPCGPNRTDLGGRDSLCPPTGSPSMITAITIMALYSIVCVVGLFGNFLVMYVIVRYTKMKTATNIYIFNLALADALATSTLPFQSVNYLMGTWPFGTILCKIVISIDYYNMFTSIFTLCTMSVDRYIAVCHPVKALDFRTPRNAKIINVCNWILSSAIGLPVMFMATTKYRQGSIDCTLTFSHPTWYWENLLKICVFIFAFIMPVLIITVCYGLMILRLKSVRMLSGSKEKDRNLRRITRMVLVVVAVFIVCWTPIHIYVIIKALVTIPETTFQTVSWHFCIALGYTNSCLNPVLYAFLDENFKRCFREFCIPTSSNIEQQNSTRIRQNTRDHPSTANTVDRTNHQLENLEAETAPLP

[10] = target: T9, hCAMKK1 (Homo sapiens, UniProt Q8N5S9); assay: KINOMEscan; assay type: binding
T9 construct: purchased DiscoverX

[11] = test system: SMYD2-mediated methylation of p53 Lys370; assay: Western blot for p53 Lys370me1, HEK293 cells co-transfected with FLAG-SMYD2 and FLAG-p53; assay type: cell-based; conditions: Homo sapiens, 0–2.5 μM, 28 h, read-out: IC50, decrease in p53 Lys370me1
Experimental: Cell lysates were subject to 10% SDS-PAGE and transferred to a PVDF membrane. Each membrane was blocked in Odyssey Blocking Buffer (LI-COR Biosciences) and incubated with monoclonal anti-p53 (D01) antibody (Abcam, ab1101) or rabbit anti-p53 Lys^370me1 antibody (a kind gift from Dr. Shelley Berger) followed by detection with IRDye®680RD goat anti-mouse IgG (LI-COR Biosciences) and IRDye800CW goat anti-rabbit IgG (LI-COR Biosciences) on the Odyssey Imager (LI-COR Biosciences). […] 4–8 h later, cells were treated with 0–25 μM compound for 15 h. […] 24 h later, cells were lysed with 200 μl of MSD Tris Lysis Buffer^TM (Meso Scale Discovery). A MULTI-ARRAY^TM 96-well plate (Meso Scale Discovery, catalog number L15XA-3) was precoated with 2 μg/ml custom-made methyl-p53 antibody (Lampire) in PBS overnight at 4 °C. 150 μl/well MSD Blocking Solution A^TM (final concentration of 3%) was added followed by shaking at room temperature for 1 h. The plate was washed three times with 1× MSD Tris Wash Buffer^TM (Meso Scale Discovery). 0.5 μg of cell lysate in 25 μl/well MSD Tris Lysis Buffer was added, followed by shaking overnight at 4 °C. […] Following a final wash three times with 1× MSD Tris Wash Buffer, 150 μl/well 1× MSD Read Buffer^TM (Meso Scale Discovery) was added, and plates were read on an MSD SECTOR^TM Imager 6000 instrument (Meso Scale Discovery).

[12] = target: T10, hEPHB4 (Homo sapiens, UniProt P54760); assay: KINOMEscan; assay type: binding
T10 construct: purchased DiscoverX

[13] = target: T11, hFRK (Homo sapiens, UniProt P42685); assay: KINOMEscan; assay type: binding
T11 construct: purchased DiscoverX

[14] = target: T12, hMEK3 (Homo sapiens, UniProt P46734); assay: KINOMEscan; assay type: binding
T12 construct: purchased DiscoverX
T12 sequence (P46734 whole entry): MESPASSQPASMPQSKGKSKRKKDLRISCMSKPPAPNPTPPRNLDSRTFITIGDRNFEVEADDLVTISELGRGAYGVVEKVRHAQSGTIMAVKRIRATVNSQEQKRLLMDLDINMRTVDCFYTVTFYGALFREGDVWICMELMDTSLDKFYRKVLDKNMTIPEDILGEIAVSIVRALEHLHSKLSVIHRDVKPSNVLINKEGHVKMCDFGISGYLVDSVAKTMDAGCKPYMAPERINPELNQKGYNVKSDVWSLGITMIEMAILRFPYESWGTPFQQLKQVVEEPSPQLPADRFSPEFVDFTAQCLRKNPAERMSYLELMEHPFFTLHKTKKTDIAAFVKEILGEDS

[15] = target: T13, hABL1(pE255K) (Homo sapiens, UniProt P00519, E255K); assay: KINOMEscan; assay type: binding
T13 construct: purchased DiscoverX (KINOMEscan platform)

[16] = target: T14, hIRAK1 (Homo sapiens, UniProt P51617); assay: KINOMEscan; assay type: binding
T14 construct: purchased DiscoverX (KINOMEscan panel)

[17] = target: T15, hCSF1R-autoinhib (Homo sapiens, UniProt P07333); assay: KINOMEscan; assay type: binding; conditions: read-out: Inhibition at the 20 μM dose
T15 construct: purchased DiscoverX (KINOMEscan platform)

[18] = target: T16, hJAK1(JH2Dom.-pseudokinase) (Homo sapiens, UniProt P23458); assay: KINOMEscan; assay type: binding
T16 construct: hJAK1(JH2Dom.-pseudokinase); purchased DiscoverX (KINOMEscan panel)
T16 sequence (P23458 583-855 limits assumed): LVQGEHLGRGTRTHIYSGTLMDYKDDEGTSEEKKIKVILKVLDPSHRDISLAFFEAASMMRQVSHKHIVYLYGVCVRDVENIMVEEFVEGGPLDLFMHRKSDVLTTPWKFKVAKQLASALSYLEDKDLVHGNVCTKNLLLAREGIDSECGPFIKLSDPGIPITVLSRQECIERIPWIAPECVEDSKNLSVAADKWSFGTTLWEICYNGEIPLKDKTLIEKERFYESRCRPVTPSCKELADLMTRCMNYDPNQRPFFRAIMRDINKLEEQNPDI

[19] = target: T7, hD1; assay: β-arrestin Antagonist (Eurofins-CEREP); conditions: read-out: % Effect, Inhibition
[20] = target: T17, hJNK2 (Homo sapiens, UniProt P45984); assay: KINOMEscan; assay type: binding
T17 construct: purchased DiscoverX (KINOMEscan panel)

[21] = target: T18, hBRSK2 (Homo sapiens, UniProt Q8IWQ3); assay: KINOMEscan; assay type: binding
T18 construct: purchased DiscoverX

[22] = target: T19, hQSK (Homo sapiens, UniProt Q9Y2K2); assay: KINOMEscan; assay type: binding
T19 construct: purchased DiscoverX (KINOMEscan platform)

[23] = target: T20, hMAP4K2 (Homo sapiens, UniProt Q12851); assay: KINOMEscan; assay type: binding
T20 construct: purchased DiscoverX (KINOMEscan platform)
T20 sequence (Q12851 whole entry): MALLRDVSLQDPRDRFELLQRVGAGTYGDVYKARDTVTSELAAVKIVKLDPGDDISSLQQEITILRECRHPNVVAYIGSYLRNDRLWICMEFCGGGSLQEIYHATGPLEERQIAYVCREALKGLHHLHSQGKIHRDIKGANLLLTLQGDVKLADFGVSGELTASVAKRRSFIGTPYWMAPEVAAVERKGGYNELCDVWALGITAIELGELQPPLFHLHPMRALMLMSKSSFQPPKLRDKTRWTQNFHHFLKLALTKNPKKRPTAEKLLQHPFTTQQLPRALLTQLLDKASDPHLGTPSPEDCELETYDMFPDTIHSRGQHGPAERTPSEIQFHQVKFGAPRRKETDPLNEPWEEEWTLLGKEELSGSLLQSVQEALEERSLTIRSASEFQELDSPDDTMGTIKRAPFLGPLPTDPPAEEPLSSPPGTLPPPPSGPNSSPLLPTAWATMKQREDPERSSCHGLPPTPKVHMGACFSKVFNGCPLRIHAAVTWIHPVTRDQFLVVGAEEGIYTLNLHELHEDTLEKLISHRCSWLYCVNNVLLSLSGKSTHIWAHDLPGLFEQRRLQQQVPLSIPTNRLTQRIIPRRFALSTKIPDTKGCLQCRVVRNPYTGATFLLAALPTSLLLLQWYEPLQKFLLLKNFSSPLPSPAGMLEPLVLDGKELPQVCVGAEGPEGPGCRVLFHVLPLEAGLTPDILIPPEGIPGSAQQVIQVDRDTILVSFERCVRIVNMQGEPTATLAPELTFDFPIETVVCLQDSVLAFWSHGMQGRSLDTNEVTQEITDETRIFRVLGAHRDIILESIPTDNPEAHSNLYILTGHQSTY

[24] = target: T21, hDAPK2 (Homo sapiens, UniProt Q9UIK4); assay: KINOMEscan; assay type: binding
T21 construct: purchased DiscoverX (KINOMEscan platform)
T21 sequence (Q9UIK4 whole entry): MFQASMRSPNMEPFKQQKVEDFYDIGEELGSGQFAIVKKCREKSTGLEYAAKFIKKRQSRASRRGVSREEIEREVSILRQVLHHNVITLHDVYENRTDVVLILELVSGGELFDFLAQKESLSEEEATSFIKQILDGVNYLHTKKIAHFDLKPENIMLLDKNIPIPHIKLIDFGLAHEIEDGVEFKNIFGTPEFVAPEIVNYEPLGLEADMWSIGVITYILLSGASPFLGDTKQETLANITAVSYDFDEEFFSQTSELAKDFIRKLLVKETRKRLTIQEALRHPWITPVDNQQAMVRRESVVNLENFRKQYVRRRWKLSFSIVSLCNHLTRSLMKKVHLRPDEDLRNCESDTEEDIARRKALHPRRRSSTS

[25] = target: T22, hACVR1 (Homo sapiens, UniProt Q04771); assay: KINOMEscan; assay type: binding
T22 construct: purchased DiscoverX (KINOMEscan platform)

[26] = target: T23, hLIMK1 (Homo sapiens, UniProt P53667); assay: KINOMEscan; assay type: binding
T23 construct: purchased DiscoverX (KINOMEscan platform)
T23 sequence (P53667 whole entry): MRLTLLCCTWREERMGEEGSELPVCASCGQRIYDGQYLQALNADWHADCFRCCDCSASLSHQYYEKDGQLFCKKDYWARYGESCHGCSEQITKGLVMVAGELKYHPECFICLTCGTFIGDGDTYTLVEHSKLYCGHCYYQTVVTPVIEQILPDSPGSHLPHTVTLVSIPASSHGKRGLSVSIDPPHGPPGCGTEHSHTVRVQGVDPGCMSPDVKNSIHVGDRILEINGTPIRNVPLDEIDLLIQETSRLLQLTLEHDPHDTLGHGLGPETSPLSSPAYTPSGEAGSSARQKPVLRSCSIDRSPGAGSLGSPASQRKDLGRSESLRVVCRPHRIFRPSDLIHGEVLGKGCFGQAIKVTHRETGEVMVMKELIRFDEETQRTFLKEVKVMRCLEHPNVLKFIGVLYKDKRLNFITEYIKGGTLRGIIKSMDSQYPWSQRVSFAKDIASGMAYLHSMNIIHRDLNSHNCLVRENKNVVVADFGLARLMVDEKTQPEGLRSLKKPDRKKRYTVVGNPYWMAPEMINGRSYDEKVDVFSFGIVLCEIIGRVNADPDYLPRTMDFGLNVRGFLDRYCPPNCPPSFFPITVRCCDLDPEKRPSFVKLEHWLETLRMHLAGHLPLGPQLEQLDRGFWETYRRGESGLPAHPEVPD

[27] = target: T24, hEPHB6 (Homo sapiens, UniProt O15197); assay: KINOMEscan; assay type: binding
T24 construct: purchased DiscoverX
T24 sequence (O15197 32-1021): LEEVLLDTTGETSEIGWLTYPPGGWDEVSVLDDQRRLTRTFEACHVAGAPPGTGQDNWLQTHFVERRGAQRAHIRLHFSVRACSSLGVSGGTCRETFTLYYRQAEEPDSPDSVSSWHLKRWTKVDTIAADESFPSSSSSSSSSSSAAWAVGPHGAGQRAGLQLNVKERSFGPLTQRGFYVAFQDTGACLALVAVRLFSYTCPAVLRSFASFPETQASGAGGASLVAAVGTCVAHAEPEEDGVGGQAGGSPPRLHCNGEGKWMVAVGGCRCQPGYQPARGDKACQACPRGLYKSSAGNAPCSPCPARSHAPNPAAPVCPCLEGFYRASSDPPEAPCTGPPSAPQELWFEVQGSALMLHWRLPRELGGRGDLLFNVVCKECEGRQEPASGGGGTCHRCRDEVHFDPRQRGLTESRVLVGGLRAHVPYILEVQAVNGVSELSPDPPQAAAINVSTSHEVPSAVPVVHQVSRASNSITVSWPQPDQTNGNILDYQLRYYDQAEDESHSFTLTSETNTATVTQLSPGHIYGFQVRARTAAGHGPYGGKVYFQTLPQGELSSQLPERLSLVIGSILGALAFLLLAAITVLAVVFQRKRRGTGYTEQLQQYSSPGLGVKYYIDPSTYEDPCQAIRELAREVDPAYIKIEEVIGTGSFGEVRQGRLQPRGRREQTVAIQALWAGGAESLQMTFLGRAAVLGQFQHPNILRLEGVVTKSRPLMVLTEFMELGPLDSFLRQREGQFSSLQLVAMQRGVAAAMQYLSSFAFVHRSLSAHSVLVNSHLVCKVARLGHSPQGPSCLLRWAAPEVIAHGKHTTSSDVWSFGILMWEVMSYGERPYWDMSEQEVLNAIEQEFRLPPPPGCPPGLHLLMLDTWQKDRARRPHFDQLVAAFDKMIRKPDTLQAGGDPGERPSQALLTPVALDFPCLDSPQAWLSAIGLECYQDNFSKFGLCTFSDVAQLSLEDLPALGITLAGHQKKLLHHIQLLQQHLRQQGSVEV

[28] = target: T25, hLXRβ (Homo sapiens, UniProt P55055); assay: Nuclear hormone receptor assay (Eurofins-CEREP); conditions: read-out: Relative IC50
T25 construct: Eurofins-CEREP

[29] = target: T26, hABL2 (Homo sapiens, UniProt P42684); assay: KINOMEscan; assay type: binding
T26 construct: purchased DiscoverX (KINOMEscan platform)

Cc1cn(CCN2CCN(c3ccccc3-c3cc(C#N)cc(C(=O)NCCCN4CCCC4)c3)CC2)c2ccccc12 [LLY-507, 3-cyano-5-{2-[4-[2-(3-methylindol-1-yl)ethyl]piperazin-1-yl]-phenyl}-N-[(3-pyrrolidin-1-yl)propyl]benzamide]
IC50 [1]: > 20 µM | IC50 [2]: > 20 µM | IC50 [3]: > 20 µM | IC50 [4]: > 20 µM | IC50 [5]: > 20 µM | IC50 [6]: > 20 µM | % Effect, Stimulation [7]: -6.8% | IC50 [8]: > 20 µM | % Effect, Potentiation [9]: 9.6% | IC50 [10]: > 20 µM | IC50 [11]: < 1 µM | IC50 [12]: > 20 µM | IC50 [13]: > 20 µM | IC50 [14]: > 20 µM | IC50 [15]: > 20 µM | IC50 [16]: > 20 µM | inhibition at 20 µM [17]: < 50% | IC50 [18]: > 20 µM | inhibition at 10 µM [19]: 43.4% | IC50 [20]: > 20 µM | IC50 [21]: > 20 µM | IC50 [22]: > 20 µM | IC50 [23]: > 20 µM | IC50 [24]: > 20 µM | IC50 [25]: > 20 µM | IC50 [26]: > 20 µM | IC50 [27]: > 20 µM | IC50 [28]: > 10 µM | IC50 [29]: > 20 µM
